# Source: patent US12545704B2, “Peptide for treating inflammation and wounds” (NIBEC CO., LTD., priority 2019, dated 2026)
# No end group written: not given here.
# Assays:
# type VII collagen [1] = target: T1, type VII collagen (Homo sapiens, UniProt Q02388); test: Slot blotting, selectivity to collagen types: type VII (Experimental Example 2); format: binding; conditions: for peptide concentration at which binding to type VII collagen was observed: peptide at 5, 10, 25, 50 and 100 μg/mL, FIG. 3
# T1 construct: purchased MyBioSource, Inc. MBS2018615
# Experimental: (§1) In order to confirm the selectivity of peptides of SEQ ID NOS: 1 to 3 to collagen types, slot blotting was performed for types I, IV and VII collagen. The NC membrane was activated with TBST, and the peptides of SEQ ID NOS: 1, 2 and 3 were placed in each well at different concentrations (5, 10, 25, 50, and 100 μg/mL) and allowed to bind to the NC membrane in a vacuum for 2 hours. A 1% solution of each of types I, IV and VII collagen (MyBioSource, Inc., San Diego, CA, USA, MBS2018615) was added to the peptide-bound membrane and allowed to bind to the membrane in a vacuum for 2 hours. The membrane was washed with TBST, and the membrane to which the peptides and types I, IV, and VII collagen were attached was allowed to react with a primary rabbit anti-human type VII collagen antibody (MyBioSource, Inc., San Diego, CA, USA, MBS2004594) at a dilution ratio of 1:800 and with a secondary antibody goat anti-rabbit Ig G (BETHYL Lab., Montgomery, TX, USA, A90-116P) at a dilution ratio of 1:5000. The reacted membrane was washed with TBST, and a chemiluminescence test was performed using WEST-one.
# E-cadherin = test: Real-time RT-PCR of wound-healing marker E-cadherin in colonic epithelial cells; format: cell-based; conditions: Caco-2 cells; 50 and 100 μg/ml; 3 days; FIG. 4
# Experimental: (§2) In order to confirm the expression level of the wound-healing marker in colonic epithelial cells (Caco-2 cell, ATCC® HTB-37™) by the peptide according to the present invention, colonic epithelial cells were dispensed in an amount of 5×10^6 cells/well in a 6-well plate and then cultured for 24 hours in DMEM (Dulbecco's Modified Eagle Medium, Gibco). The cells were treated with the peptides of SEQ ID NOS: 1, 2, and 3 at concentrations of 50 and 100 μg/ml and then cultured for up to 3 days. After 3 days, the cells were harvested and the gene expression levels of E-cadherin protein, which is highly expressed in colonic epithelial cells, and ZO-1 protein, which is highly expressed at the tight junction between colonic epithelial cells, were measured through real-time RT-PCR.
# (§3) RNA was extracted from the obtained cells using TRIzol, and cDNA was synthesized using a kit from Thermo Scientific (cat. No. K1641). The same amount of cDNA was amplified by 40 cycles at 95° C.-60° C. using a SYBR green PCR master mix and a StepOnePlus™ Real-Time PCR System available from Applied Biosystems, and the ΔΔct values of individual groups were compared. The nucleotide sequences of the PCR primers used for amplification of each gene are as follows.
# [2] = tested on: colonic epithelial cells (Caco-2 cell); test: Proliferation of colonic epithelial cells (CCK-8); format: cell-based; conditions: 100 μM, 3rd day, FIG. 5
# Experimental: In order to confirm the proliferation and migration in colonic epithelial cells (Caco-2 cell, ATCC® HTB-37™) by the peptide according to the present invention, the cells were dispensed in an amount of 5×10^3 cells/well in a 96-well plate and then cultured for 24 hours in DMEM (Dulbecco's Modified Eagle Medium, Gibco). The peptides (SEQ ID NOS: 1, 2, and 3) were dispensed at a concentration of 100 μM in the cells and then cultured for up to 3 days at intervals of 1 day. The cell count was measured using a CCK-8 (Cell Counting Kit-8, CK04, Dojindo Lab.). After 1, 2, and 3 days, the medium containing the peptide was removed, 10% of a CCK-8 solution was added to fresh DMEM, and 100 μl thereof was then dispensed. After 1 hour and 30 minutes, absorbance was measured at 450 nm.
# type VII collagen [3] = target: T1, type VII collagen; test: Slot blotting, binding ability to type VII collagen (Experimental Example 1); conditions: peptide at 5, 10 and 20 μg/mL, FIG. 2
# Experimental: Slot blotting was performed to confirm the ability of the peptides of SEQ ID NOS: 1 and 3 to bind to type VII collagen. The NC membrane was activated with TBST, and the peptides of SEQ ID NOS: 1 and 3 were placed in each well at different concentrations (5, 10, and 20 μg/mL) and allowed to bind to the NC membrane in a vacuum for 2 hours. A 1% solution of type VII collagen (MyBioSource, Inc., San Diego, CA, USA, MBS2018615) was added to the peptide-bound membrane and allowed to bind to the membrane in a vacuum for 2 hours. After washing the membrane with TBST, the membrane to which the peptide and type VII collagen were attached was allowed to react with a primary rabbit anti-human type VII collagen antibody (MyBioSource, Inc., San Diego, CA, USA, MBS2004594) at a dilution ratio of 1:800 and with a secondary antibody goat anti-rabbit Ig G (BETHYL Lab., Montgomery, TX, USA, A90-116P) at a dilution ratio of 1:5000. The reacted membrane was washed with TBST, and a chemiluminescence test was performed using WEST-one. Based on the results of measurement of the ability of the peptide to bind to type VII collagen depending on the peptide concentration, when the concentration of the peptide of SEQ ID NO: 1 was 10 μg/mL or more or the concentration of the peptide of SEQ ID NO: 3 was 5 μg/mL or more, the ability thereof to bind to type VII collagen was confirmed (FIG. 2).
# type I collagen = target: T2, type I collagen (Homo sapiens, UniProt P02452+P08123); test: Slot blotting, selectivity to collagen types: type I (Experimental Example 2); format: binding; conditions: peptide at 5, 10, 25, 50 and 100 μg/mL, FIG. 3
# T2 construct: purchased MyBioSource, Inc
# Experimental: as §1
# Caco-2 cells = test: Scratch migration of colonic epithelial cells; format: cell-based; conditions: Caco-2 scratch, 100 μM, FIG. 6; for migration area: 2nd day; for cell migration compared to cells not treated with the peptide: up to 48 hours
# Experimental: In order to measure cell migration ability, Caco-2 cells (1×10^6 cells) were placed in a 6-well plate and cultured in DMEM supplemented with 10% fetal bovine serum (FBS) and 1% antibiotic-antimycotic solution (Gibco, Grand Island, N.Y., USA). The cells were washed with PBS and allowed to stand overnight in a medium containing 2% FBS. The central portion of the cell layer was scratched using a sterile 200 μl plastic pipette tip. The scratched cell layer was washed twice with PBS to remove unadhered cells. Each of the peptides of SEQ ID NOS: […] at a concentration of 100 μM to the medium, followed by culture for up to 48 hours. The extent of cell migration toward the center from the scratched edges was measured using an Olympus CKX41 inverted microscope (magnification: ×20).
# ZO-1 = test: Real-time RT-PCR of wound-healing marker ZO-1 in colonic epithelial cells; format: cell-based; conditions: Caco-2 cells; 50 and 100 μg/ml; 3 days; FIG. 4
# Experimental: as §2, §3
# type IV collagen = test: Slot blotting, selectivity to collagen types: type IV (Experimental Example 2); format: binding; conditions: peptide up to 100 μg/mL, FIG. 3
# Experimental: as §1
# [4] = tested on: DSS-induced acute inflammatory bowel disease; test: Therapeutic effect in animal model of DSS-induced acute inflammatory bowel disease; format: in vivo, ICR mice
# Experimental: In order to confirm the therapeutic effect of the synthesized peptide in animals, acute inflammatory bowel disease was induced with DSS in ICR mice (Orient Bio), and simultaneously, the synthesized peptide was injected thereto. Inflammation was induced in mice using 5% DSS as drinking water for 7 days, and simultaneously, the synthesized peptide was IP-injected thereto. The normal group (Normal, n=6) was not treated with DSS, and in the untreated group (No treatment, n=6), only DSS was used, and no drug was injected. The positive control group (SAHA, Sigma-Aldrich, 25 mg/kg, n=6), the immunomodulatory control group (Anti-TNF-a antibody, Pfizer, 1 mg/kg, n=6), and the peptide of SEQ ID NO: 1 (50 mg/kg, n=6) were injected once daily. After 7 days, mice were sacrificed by CO2 hyperventilation, the colons were collected, and the lengths thereof were compared. Additionally, the tissue was fixed and processed to prepare a paraffin block, and H&E staining was performed to determine whether the intestinal tissue was damaged.
# integrin beta 1 = target: T3, integrin beta 1 (Mus musculus, UniProt P09055); test: Confocal co-localization of Cy5.5-labeled peptide with integrin beta 1 in colon tissue; format: in vivo, mice; conditions: 1 hour after injection, FIG. 11
# T3 construct: from tissue; host or cells: colon of mice with DSS-induced colitis
# Text: In order to confirm co-localization of synthesized peptide to the colon, inflammation was induced in mice using 5% DSS in drinking water for 7 days, followed by the cy5.5-labeled peptide of SEQ ID NO: 1 was […] thereto. An hour after injection, each mouse was sacrificed and the colon tissue was isolated for analysis. Excised colons were fixed with 4% paraformaldehyde, and made frozen tissue block with Tissue-Tek® O.C.T. compound (4583, Sakura). Frozen tissue block was sectioned using clinical cryostat (CM1950, Leica) and placed on microscope slides.
# Each sectioned tissue slides were stained for immunofluorescence. In brief, sectioned slides were permeabilized with 0.5% Triton X-100 (9036-19-5, Sigma-Aldrich) in PBS for 10 min. Next, 5% BSA in PBS were treated 30 minutes for blocking, followed by overnight incubation of anti-integrin beta 1 diluted in blocking buffer. After washing the slides, Alexa Fluor 488 conjugated anti-mouse secondary antibody (A-11001, Thermo Fisher Scientific) was diluted and incubated for an hour, and DAPI staining. Slides were mounted for imaging in confocal microscopy (LSM700, Carl Zeiss).
# [5] = IVIS distribution of Cy5.5-labeled peptide in DSS-induced acute inflammatory bowel disease model; format: in vivo; conditions: IP injection, DSS mice, 30, 60 and 180 minutes, FIG. 7
# Text: In order to confirm distribution of the synthesized peptide to the colon, inflammation was induced in mice using 5% DSS as drinking water for 7 days, after which the Cy5.5-labeled peptide of SEQ ID NO: 1 was IP-injected thereto.
# [6] = tested on: DSS-induced chronic inflammatory bowel disease; test: Therapeutic effect in animal model of DSS-induced chronic inflammatory bowel disease; format: in vivo, ICR mice
# Experimental: In order to confirm the therapeutic effect of the synthesized peptide in animals, chronic inflammatory bowel disease was induced with DSS in ICR mice (Orient Bio). 1.5% DSS was used as drinking water for 7 days, water not containing DSS was provided for the next 7 days, and 1.5% DSS was used as drinking water for the next 7 days (FIG. 9A). Thereafter, the peptide of SEQ ID NO: 1 was administered through SC injection. The normal group (Normal, n=9) was not treated with DSS, and the untreated group (Untreated, n=9) was treated only with DSS, and no drug was injected. The positive control group (Infliximab, 5 mg/kg, n=9) and the peptide of SEQ ID NO: 1 (30 mg/kg, n=9) were injected once daily for 14 days. 28 days after the start of DSS administration, the animals were sacrificed by CO2 hyperventilation, the colons were collected, and the lengths thereof were compared. Additionally, the tissue was fixed and processed to prepare a paraffin block, and H&E staining was performed to determine whether the intestinal tissue was damaged.
# T1 sequence (Q02388 17-2944): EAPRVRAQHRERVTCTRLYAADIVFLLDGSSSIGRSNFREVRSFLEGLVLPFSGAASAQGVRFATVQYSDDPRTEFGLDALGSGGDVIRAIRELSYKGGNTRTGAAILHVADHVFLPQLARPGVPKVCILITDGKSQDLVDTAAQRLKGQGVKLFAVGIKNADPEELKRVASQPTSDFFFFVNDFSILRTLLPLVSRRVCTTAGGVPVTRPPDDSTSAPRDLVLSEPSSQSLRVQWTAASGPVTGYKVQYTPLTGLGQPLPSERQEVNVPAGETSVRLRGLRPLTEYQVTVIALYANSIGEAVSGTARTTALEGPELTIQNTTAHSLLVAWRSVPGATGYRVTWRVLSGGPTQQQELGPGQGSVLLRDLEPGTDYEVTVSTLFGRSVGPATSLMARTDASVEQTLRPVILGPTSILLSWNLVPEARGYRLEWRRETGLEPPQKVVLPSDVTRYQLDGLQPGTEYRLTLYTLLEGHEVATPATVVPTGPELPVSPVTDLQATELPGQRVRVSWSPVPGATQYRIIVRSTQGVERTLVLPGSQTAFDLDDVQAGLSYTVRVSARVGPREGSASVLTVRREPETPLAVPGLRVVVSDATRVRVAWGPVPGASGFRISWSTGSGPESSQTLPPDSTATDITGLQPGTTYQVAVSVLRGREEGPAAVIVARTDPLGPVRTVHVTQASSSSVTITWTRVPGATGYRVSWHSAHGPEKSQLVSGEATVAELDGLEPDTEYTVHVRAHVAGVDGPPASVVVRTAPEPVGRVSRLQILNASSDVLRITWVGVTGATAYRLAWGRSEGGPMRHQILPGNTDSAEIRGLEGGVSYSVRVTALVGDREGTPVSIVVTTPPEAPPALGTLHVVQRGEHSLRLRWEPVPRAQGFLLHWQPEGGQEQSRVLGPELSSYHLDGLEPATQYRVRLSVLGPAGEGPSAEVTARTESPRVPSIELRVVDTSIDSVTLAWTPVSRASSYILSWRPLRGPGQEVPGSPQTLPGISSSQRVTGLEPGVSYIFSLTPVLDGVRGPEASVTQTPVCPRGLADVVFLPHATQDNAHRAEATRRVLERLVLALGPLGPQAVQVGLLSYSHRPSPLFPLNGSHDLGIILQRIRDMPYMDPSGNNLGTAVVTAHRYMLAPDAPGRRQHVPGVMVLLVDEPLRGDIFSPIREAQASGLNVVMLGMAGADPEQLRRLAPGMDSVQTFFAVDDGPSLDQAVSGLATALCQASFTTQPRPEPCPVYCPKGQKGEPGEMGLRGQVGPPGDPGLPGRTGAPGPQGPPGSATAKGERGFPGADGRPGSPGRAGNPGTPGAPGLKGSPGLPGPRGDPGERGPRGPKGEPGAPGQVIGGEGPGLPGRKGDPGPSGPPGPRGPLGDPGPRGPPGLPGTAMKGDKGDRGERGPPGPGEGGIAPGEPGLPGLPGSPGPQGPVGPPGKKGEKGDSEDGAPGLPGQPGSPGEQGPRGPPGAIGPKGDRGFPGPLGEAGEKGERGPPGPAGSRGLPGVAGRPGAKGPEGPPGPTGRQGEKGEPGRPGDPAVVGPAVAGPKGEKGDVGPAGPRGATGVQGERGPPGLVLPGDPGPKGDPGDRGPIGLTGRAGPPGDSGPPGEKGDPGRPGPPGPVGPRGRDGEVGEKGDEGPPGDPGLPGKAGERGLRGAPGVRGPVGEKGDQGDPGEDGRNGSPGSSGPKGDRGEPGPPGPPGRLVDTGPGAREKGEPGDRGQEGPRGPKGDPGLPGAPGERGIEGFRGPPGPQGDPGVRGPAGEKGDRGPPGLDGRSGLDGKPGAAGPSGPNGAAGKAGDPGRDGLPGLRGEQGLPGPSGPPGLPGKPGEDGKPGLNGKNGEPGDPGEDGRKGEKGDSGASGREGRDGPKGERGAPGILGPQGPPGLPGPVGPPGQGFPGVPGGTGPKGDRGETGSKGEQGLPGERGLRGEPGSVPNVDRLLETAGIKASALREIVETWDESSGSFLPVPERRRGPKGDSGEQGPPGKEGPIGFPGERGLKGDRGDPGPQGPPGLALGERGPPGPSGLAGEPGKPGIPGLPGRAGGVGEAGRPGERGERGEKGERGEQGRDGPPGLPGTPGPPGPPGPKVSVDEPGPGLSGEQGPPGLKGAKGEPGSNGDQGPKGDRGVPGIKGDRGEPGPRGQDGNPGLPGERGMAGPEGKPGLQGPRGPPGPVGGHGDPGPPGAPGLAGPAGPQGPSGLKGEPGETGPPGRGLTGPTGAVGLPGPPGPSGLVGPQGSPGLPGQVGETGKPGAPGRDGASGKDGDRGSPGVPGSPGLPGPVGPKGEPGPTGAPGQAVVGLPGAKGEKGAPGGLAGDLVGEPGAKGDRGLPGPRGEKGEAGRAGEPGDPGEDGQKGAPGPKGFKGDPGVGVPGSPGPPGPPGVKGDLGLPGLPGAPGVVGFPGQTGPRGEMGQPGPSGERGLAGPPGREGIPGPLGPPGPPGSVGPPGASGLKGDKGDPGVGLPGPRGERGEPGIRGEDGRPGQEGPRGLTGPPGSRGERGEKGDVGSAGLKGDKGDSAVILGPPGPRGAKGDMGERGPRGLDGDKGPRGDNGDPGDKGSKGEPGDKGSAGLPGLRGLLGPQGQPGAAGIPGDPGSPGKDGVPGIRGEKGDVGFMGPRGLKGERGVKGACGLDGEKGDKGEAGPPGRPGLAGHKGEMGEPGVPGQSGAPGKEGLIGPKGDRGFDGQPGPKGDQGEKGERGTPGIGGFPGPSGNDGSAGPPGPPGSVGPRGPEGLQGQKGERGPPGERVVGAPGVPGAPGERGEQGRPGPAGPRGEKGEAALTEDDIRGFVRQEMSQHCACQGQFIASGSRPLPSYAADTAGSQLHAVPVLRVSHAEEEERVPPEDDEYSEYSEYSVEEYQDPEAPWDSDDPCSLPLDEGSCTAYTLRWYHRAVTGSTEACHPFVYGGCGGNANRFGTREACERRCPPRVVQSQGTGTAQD
# T3 sequence (P09055 21-798): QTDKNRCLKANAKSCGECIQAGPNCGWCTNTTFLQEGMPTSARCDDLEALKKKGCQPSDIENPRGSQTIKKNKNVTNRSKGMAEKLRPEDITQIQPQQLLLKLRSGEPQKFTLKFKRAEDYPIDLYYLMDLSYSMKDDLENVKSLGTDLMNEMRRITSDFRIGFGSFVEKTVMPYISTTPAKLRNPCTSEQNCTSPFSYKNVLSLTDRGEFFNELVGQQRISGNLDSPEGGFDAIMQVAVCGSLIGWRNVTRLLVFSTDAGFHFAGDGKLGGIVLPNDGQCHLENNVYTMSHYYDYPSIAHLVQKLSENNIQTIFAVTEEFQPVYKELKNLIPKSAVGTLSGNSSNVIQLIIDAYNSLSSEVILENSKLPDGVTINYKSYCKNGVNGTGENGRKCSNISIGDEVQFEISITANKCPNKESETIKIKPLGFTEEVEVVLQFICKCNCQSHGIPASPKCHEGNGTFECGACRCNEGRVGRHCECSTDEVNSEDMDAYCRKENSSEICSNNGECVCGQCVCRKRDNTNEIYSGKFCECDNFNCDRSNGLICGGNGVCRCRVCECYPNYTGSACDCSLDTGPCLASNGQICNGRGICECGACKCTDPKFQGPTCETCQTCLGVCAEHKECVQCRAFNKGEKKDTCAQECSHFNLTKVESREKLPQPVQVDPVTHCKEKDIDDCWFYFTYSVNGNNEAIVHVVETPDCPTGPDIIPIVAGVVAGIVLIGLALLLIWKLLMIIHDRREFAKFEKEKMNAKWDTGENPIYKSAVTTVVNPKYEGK
selectivity to type VII collagen versus types I and IV collagen (type VII collagen [1]),peptide concentration at which binding to type VII collagen was observed (type VII collagen [1]),peptide concentration at which binding to type I collagen was observed (type I collagen) [µg/mL],binding to type IV collagen (type IV collagen),Compound,gene expression of E-cadherin (E-cadherin),cell proliferation rate compared to the control group (cells not treated with the peptide) [2] [%],migration area (Caco-2 cells) [%],cell migration compared to cells not treated with the peptide (Caco-2 cells),gene expression of ZO-1 (ZO-1),fluorescence in small intestine and colon (IVIS) [5],further results
higher selectivity to type VII collagen,at least 10 μg/mL,100,did not bind,LTEFPLRMRDWLKN (Human osteonectin 160-173) [SEQ ID NO: 3],increased with an increase in the concentration of the peptide,51,56,increased cell migration,increased with an increase in the concentration of the peptide,–,peptide concentration at which the ability to bind to type VII collagen was confirmed (type VII collagen [3]): ≥ 5 µg/mL
higher selectivity to type VII collagen,at least 20 μg/mL,50,did not bind,"RPRYYLYKHAYFYPHLKRFP (human bone sialoprpotein II 41-60) [SEQ ID NO: 2, Human bone sialoprotein II 41-60]",increased with an increase in the concentration of the peptide,56,75,increased cell migration,increased with an increase in the concentration of the peptide,–,–
–,–,–,–,O=C(CCCCCCC(=O)Nc1ccccc1)NO [SAHA],–,–,–,–,–,–,"colon length ([4]; 5% DSS 7 days, IP once daily, SEQ ID NO: 1 50 mg/kg, SAHA 25 mg/kg, antibody 1 mg/kg, p<0.05 vs untreated, FIG. 8): maintained the colon length; inflammatory cells in the intestinal mucosa (H&E histology) ([4]; acute DSS model, FIG. 8 part c): significantly decreased; villi structure (H&E histology) ([4]; acute DSS model, FIG. 8 part c): villi structure was maintained well"
–,–,–,–,YGLRSKSKKFRRPDIQYPDAT-NH2 (C-terminus assumed) [SEQ ID NO: 1],–,–,–,–,–,red fluorescence was constantly observed in the small intestine and colon from the initial 30 minutes to 180 minutes,localization of peptide in DSS-induced mouse colon (integrin beta 1; 5% DSS 7 days): detected in colon tissue; localization of peptide in normal colon (integrin beta 1): does not show any localization
–,–,–,–,infliximab,–,–,–,–,–,–,"inflammatory cells in the intestinal mucosa (H&E histology) ([6]; FIG. 9G): inflammatory cells in the intestinal mucosa were observed; villi structure (H&E histology) ([6]; FIG. 9G): some improvement compared to the untreated group, but villous damage; colon length ([6]; SEQ ID NO: 1 30 mg/kg SC, infliximab 5 mg/kg, once daily 14 days, p<0.05 vs untreated, FIG. 9D): maintained the colon length"
–,–,–,–,Cy5.5 [reference compound],–,–,–,–,–,almost no fluorescence was observed at 180 minutes,–
